From ChEMBL document CHEMBL1811886 (J Med Chem, 2011)
Each block holds one molecule with its values, some of them ahead of it.

Legend:
[1] = Terminal half life in fasted Sprague-Dawley rat at 1 mg/kg, iv after 6 to 24 hrs by LC-MS/MS analysis; type: ADME, organism-based; set-up: dose 1 mg/kg, route intravenous; conditions: in vivo, read-out: beta t1/2 (converted)
[2] = Oral bioavailability in fasted Sprague-Dawley rat at 5 mg/kg after 6 hrs by LC-MS/MS analysis; type: ADME, organism-based; conditions: in vivo
[3] = Ratio of drug uptake in brain to plasma of fasted Sprague-Dawley rat at 1 mg/kg, iv after 6 to 24 hrs by LC-MS/MS analysis; type: ADME, organism-based; set-up: dose 1 mg/kg, route intravenous; conditions: read-out: BPR
[4] = Systemic clearance in fasted Sprague-Dawley rat at 1 mg/kg, iv after 6 to 24 hrs by LC-MS/MS analysis; type: ADME, organism-based; set-up: dose 1 mg/kg, route intravenous; conditions: in vivo
[5] = target: T1, Histamine H3 receptor (Rattus norvegicus, UniProt Q9QYN8); assay: Displacement of [3H]NAMH from rat histamine H3 receptor expressed in CHO cells; type: cell-based
T1 sequence (Q9QYN8 whole entry): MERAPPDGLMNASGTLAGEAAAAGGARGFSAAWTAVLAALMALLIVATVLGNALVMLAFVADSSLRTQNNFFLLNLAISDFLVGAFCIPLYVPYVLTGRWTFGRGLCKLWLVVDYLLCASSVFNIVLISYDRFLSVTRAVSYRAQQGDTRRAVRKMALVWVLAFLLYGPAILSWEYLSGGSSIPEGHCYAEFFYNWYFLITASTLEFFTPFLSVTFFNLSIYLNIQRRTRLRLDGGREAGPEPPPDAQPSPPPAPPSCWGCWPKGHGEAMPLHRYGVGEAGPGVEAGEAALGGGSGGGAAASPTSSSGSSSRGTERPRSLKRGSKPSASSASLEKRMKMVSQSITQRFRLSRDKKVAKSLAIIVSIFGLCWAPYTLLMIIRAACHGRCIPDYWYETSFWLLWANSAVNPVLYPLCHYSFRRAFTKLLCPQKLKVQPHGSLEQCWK

[6] = target: T2, Histamine H3 receptor (Homo sapiens, UniProt Q9Y5N1); assay: Antagonist activity against human histamine H3 receptor assessed as inhibition of R-alpha-methylhistamine induced [35S]GTPgammaS binding; type: functional
T2 sequence (Q9Y5N1 whole entry): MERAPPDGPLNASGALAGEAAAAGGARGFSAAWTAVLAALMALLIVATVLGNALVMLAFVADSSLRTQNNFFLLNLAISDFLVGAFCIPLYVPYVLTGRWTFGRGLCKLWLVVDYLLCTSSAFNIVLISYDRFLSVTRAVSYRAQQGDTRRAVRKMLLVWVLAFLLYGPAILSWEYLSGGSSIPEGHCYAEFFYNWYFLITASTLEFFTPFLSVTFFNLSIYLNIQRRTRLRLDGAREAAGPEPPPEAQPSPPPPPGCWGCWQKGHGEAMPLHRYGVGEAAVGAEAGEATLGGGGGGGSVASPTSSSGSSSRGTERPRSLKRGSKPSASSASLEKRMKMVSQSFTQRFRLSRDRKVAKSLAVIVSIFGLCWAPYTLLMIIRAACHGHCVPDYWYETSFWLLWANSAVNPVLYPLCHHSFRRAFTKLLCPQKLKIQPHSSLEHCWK

[7] = Oral bioavailability in fasted Sprague-Dawley rat at 10 mg/kg after 24 hrs by LC-MS/MS analysis; type: ADME, organism-based; conditions: in vivo
[8] = target: Voltage-gated inwardly rectifying potassium channel KCNH2 (Homo sapiens, UniProt Q12809); assay: Inhibition of recombinant human ERG channel expressed in human HEK 293 cells by patch clamp assay; type: cell-based, HEK293
Voltage-gated inwardly rectifying potassium channel KCNH2, sequence (Q12809 whole entry): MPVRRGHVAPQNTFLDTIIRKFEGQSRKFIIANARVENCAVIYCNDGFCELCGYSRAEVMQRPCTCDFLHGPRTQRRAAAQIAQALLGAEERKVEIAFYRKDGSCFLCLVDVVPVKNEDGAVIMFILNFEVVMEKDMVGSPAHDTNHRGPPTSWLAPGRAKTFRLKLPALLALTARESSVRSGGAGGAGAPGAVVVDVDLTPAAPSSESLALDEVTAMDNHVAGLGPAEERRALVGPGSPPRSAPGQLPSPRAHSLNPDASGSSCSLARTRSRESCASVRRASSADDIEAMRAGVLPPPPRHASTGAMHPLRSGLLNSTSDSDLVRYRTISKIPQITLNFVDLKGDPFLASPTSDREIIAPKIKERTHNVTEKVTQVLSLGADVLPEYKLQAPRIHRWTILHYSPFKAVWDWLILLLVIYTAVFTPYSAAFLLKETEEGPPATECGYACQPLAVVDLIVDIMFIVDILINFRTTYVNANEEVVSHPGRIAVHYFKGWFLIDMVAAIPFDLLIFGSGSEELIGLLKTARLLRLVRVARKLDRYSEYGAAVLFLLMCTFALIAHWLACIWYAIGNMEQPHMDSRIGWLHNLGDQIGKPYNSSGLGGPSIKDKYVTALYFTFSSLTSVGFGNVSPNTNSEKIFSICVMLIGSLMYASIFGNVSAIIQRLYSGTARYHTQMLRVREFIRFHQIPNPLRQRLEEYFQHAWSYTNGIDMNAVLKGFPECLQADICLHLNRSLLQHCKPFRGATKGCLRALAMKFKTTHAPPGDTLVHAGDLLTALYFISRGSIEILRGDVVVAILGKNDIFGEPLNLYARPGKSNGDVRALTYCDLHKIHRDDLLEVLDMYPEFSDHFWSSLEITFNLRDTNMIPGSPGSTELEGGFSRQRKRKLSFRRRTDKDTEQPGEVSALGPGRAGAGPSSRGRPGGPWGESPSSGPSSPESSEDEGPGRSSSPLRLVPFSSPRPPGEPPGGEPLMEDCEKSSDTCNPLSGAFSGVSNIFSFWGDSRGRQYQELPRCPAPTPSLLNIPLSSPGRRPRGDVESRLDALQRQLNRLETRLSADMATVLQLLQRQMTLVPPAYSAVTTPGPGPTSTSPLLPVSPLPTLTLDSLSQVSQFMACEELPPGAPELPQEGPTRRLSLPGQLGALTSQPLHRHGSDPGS

[9] = target: T2, Histamine H3 receptor; assay: Displacement of [3H]NAMH from human histamine H3 receptor expressed in CHO cells; type: cell-based
[10] = target: T2, Histamine H3 receptor; assay: Inverse agonist activity at human histamine H3 receptor assessed as inhibition of R-alpha-methylhistamine induced [35S]GTPgammaS binding; type: functional
[11] = target: T1, Histamine H3 receptor; assay: Inverse agonist activity at rat histamine H3 receptor assessed as inhibition of R-alpha-methylhistamine induced [35S]GTPgammaS binding; type: functional
[12] = tested on: Rattus norvegicus; assay: Inhibition of RAMH-induced dipsogenia in Long Evans rat administered as po 15 mins prior to RAMH challenge; type: functional
[13] = tested on: Plasma; assay: Clearance in Sprague-Dawley rat plasma at 10 mg/kg, po administered as single dose after 24 hrs by LC-MS/MS analysis; type: ADME, organism-based; set-up: dose 10 mg/kg, route oral; conditions: in vivo
[14] = Oral bioavailability in fasted Sprague-Dawley rat at 3 mg/kg, po after 6 to 24 hrs by LC-MS/MS analysis; type: ADME, organism-based; conditions: in vivo
[15] = Cmax in fasted Sprague-Dawley rat at 3 mg/kg, po after 6 to 24 hrs by LC-MS/MS analysis; type: ADME, organism-based; set-up: dose 3 mg/kg, route oral; conditions: in vivo
[16] = tested on: Kidney; assay: Clearance in Sprague-Dawley rat kidney at 10 mg/kg, po administered as single dose after 24 hrs by LC-MS/MS analysis; type: ADME, organism-based; set-up: dose 10 mg/kg, route oral; conditions: in vivo
[17] = target: Cytochrome P450 1A2 (Homo sapiens, UniProt P05177); assay: Inhibition of CYP1A2; type: ADME
Cytochrome P450 1A2, sequence (P05177 whole entry): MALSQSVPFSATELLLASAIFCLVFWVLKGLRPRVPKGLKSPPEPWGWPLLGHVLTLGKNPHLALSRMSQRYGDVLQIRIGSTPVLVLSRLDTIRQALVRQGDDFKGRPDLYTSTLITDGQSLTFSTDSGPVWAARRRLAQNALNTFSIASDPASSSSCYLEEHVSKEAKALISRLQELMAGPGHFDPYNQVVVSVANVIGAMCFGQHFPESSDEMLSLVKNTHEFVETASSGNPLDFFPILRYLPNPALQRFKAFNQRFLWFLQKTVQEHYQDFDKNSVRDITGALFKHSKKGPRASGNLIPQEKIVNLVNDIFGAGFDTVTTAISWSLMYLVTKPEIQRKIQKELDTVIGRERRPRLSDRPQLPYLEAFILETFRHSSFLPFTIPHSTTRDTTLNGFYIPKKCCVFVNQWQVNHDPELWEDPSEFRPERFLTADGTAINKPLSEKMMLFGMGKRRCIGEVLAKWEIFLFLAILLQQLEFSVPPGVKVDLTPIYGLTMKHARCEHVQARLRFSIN

[18] = Metabolic stability of compound in mouse liver microsomes assessed as compound remaining at 40 mins; type: ADME, Microsome; conditions: read-out: Stability
[19] = AUC in cynomolgus monkey at 1 mg/kg, po after 6 to 24 hrs by LC-MS/MS analysis; type: ADME, organism-based, Macaca fascicularis; set-up: dose 1 mg/kg, route oral; conditions: plasma
[20] = AUC in fasted Sprague-Dawley rat at 3 mg/kg, po after 6 to 24 hrs by LC-MS/MS analysis; type: ADME, organism-based; set-up: dose 3 mg/kg, route oral; conditions: plasma
[21] = Volume of distribution in fasted Sprague-Dawley rat at 1 mg/kg, iv after 6 to 24 hrs by LC-MS/MS analysis; type: ADME, organism-based; set-up: dose 1 mg/kg, route intravenous; conditions: in vivo
[22] = Metabolic stability of compound in dog liver microsomes assessed as half life; type: ADME, Canis lupus familiaris, Microsome
[23] = Metabolic stability of compound in dog liver microsomes assessed as compound remaining at 40 mins; type: ADME, Canis lupus familiaris, Microsome; conditions: read-out: Stability
[24] = Metabolic stability of compound in rat liver microsomes assessed as compound remaining at 40 mins; type: ADME, Microsome; conditions: read-out: Stability
[25] = target: Cytochrome P450 2D6 (Homo sapiens, UniProt P10635); assay: Inhibition of CYP2D6; type: ADME
Cytochrome P450 2D6, sequence (P10635 whole entry): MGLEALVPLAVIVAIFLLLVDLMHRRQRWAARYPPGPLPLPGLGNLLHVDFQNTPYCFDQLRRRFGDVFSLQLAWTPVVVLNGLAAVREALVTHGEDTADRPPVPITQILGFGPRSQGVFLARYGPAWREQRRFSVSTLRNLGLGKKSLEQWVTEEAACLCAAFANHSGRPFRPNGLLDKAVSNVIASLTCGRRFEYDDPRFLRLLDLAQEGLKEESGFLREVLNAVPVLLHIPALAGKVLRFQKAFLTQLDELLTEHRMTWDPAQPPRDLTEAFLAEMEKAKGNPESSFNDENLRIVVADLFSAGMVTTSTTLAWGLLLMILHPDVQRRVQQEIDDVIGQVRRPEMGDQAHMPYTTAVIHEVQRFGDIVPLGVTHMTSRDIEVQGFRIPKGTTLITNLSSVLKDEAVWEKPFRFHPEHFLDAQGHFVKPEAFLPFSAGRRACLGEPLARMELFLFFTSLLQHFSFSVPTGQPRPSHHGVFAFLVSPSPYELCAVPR

[26] = Terminal half life in Beagle dog at 1 mg/kg, iv after 6 to 24 hrs by LC-MS/MS analysis; type: ADME, organism-based, Canis lupus familiaris; set-up: dose 1 mg/kg, route intravenous; conditions: in vivo, read-out: beta t1/2 (converted)
[27] = Clearance in cynomolgus monkey at 1 mg/kg, iv after 6 to 24 hrs by LC-MS/MS analysis; type: ADME, organism-based, Macaca fascicularis; set-up: dose 1 mg/kg, route intravenous; conditions: in vivo
[28] = tested on: Canis familiaris; assay: Cmax in Beagle dog at 3 mg/kg, po after 6 to 24 hrs by LC-MS/MS analysis; type: ADME, organism-based, Canis lupus familiaris; set-up: dose 3 mg/kg, route oral; conditions: in vivo
[29] = Volume of distribution in Beagle dog at 1 mg/kg, iv after 6 to 24 hrs by LC-MS/MS analysis; type: ADME, organism-based, Canis lupus familiaris; set-up: dose 1 mg/kg, route intravenous; conditions: in vivo
[30] = Oral bioavailability in cynomolgus monkey at 1 mg/kg after 6 to 24 hrs by LC-MS/MS analysis; type: ADME, organism-based, Macaca fascicularis; conditions: in vivo
[31] = Terminal half life in cynomolgus monkey at 1 mg/kg, iv after 6 to 24 hrs by LC-MS/MS analysis; type: ADME, organism-based, Macaca fascicularis; set-up: dose 1 mg/kg, route intravenous; conditions: in vivo, read-out: beta t1/2 (converted)
[32] = tested on: Lung; assay: Clearance in Sprague-Dawley rat lung at 10 mg/kg, po administered as single dose after 24 hrs by LC-MS/MS analysis; type: ADME, organism-based; set-up: dose 10 mg/kg, route oral; conditions: in vivo
[33] = Metabolic stability of compound in rat liver microsomes assessed as half life; type: ADME, Microsome
[34] = Terminal half life in cynomolgus monkey at 1 mg/kg, po after 6 to 24 hrs by LC-MS/MS analysis; type: ADME, organism-based, Macaca fascicularis; set-up: dose 1 mg/kg, route oral; conditions: in vivo, read-out: beta t1/2 (converted)
[35] = tested on: Spleen; assay: Clearance in Sprague-Dawley rat spleen at 10 mg/kg, po administered as single dose after 24 hrs by LC-MS/MS analysis; type: ADME, organism-based; set-up: dose 10 mg/kg, route oral; conditions: in vivo
[36] = Oral bioavailability in Beagle dog at 3 mg/kg after 6 to 24 hrs by LC-MS/MS analysis; type: ADME, organism-based, Canis lupus familiaris; conditions: in vivo
[37] = Terminal half life in Beagle dog at 3 mg/kg, po after 6 to 24 hrs by LC-MS/MS analysis; type: ADME, organism-based, Canis lupus familiaris; set-up: dose 3 mg/kg, route oral; conditions: in vivo, read-out: beta t1/2 (converted)
[38] = Metabolic stability of compound in mouse liver microsomes assessed as half life; type: ADME, Microsome
[39] = AUC in Beagle dog at 3 mg/kg, po after 6 to 24 hrs by LC-MS/MS analysis; type: ADME, organism-based, Canis lupus familiaris; set-up: dose 3 mg/kg, route oral; conditions: plasma
[40] = Plasma protein binding in human after 1 hr by LC/MS/MS analysis; type: ADME, cell-free; conditions: read-out: PPB (converted)
[41] = tested on: Heart; assay: Clearance in Sprague-Dawley rat heart at 10 mg/kg, po administered as single dose after 24 hrs by LC-MS/MS analysis; type: ADME, organism-based; set-up: dose 10 mg/kg, route oral; conditions: in vivo
[42] = Cmax in cynomolgus monkey at 1 mg/kg, po after 6 to 24 hrs by LC-MS/MS analysis; type: ADME, organism-based, Macaca fascicularis; set-up: dose 1 mg/kg, route oral; conditions: in vivo
[43] = target: Cytochrome P450 2C19 (Homo sapiens, UniProt P33261); assay: Inhibition of CYP2C19; type: ADME
Cytochrome P450 2C19, sequence (P33261 whole entry): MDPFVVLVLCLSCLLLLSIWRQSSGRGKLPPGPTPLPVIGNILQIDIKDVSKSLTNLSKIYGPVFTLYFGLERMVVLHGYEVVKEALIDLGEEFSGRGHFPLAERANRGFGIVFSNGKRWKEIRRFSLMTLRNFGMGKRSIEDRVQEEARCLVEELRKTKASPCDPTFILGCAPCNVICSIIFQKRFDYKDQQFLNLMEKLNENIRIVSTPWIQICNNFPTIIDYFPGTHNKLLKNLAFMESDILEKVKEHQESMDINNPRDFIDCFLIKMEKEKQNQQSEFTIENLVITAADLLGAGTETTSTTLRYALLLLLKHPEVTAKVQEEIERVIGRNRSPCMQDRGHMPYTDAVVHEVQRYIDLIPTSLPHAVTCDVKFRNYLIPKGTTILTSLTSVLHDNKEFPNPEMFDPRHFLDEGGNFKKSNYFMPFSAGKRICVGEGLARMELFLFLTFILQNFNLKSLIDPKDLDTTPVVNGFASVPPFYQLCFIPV

[44] = tested on: Liver; assay: Clearance in Sprague-Dawley rat liver at 10 mg/kg, po administered as single dose after 24 hrs by LC-MS/MS analysis; type: ADME, organism-based; set-up: dose 10 mg/kg, route oral; conditions: in vivo
[45] = Metabolic stability of compound in human liver microsomes assessed as half life; type: ADME, Microsome
[46] = target: Cytochrome P450 3A4 (Homo sapiens, UniProt P08684); assay: Inhibition of CYP3A4; type: ADME
Cytochrome P450 3A4, sequence (P08684 whole entry): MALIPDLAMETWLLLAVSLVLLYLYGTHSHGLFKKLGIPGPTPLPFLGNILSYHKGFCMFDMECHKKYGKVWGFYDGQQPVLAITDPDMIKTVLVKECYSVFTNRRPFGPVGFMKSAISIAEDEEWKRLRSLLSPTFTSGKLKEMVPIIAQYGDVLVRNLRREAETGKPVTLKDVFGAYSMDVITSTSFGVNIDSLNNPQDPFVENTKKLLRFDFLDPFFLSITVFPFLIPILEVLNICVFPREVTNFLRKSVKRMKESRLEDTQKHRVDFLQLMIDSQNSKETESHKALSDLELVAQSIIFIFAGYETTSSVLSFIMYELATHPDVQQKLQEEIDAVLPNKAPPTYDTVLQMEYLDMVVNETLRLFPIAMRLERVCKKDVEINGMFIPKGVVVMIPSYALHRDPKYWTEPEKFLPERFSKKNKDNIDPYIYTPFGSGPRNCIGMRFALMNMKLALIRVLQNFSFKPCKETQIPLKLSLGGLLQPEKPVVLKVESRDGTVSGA

[47] = Fraction unbound in rat brain; type: ADME, tissue-based
[48] = Plasma protein binding in rat after 1 hr by LC/MS/MS analysis; type: ADME, cell-free; conditions: read-out: PPB (converted)
[49] = Metabolic stability of compound in human liver microsomes assessed as compound remaining at 40 mins; type: ADME, Microsome; conditions: read-out: Stability
[50] = Terminal half life in fasted Sprague-Dawley rat at 3 mg/kg, po after 6 to 24 hrs by LC-MS/MS analysis; type: ADME, organism-based; set-up: dose 3 mg/kg, route oral; conditions: in vivo, read-out: beta t1/2 (converted)
[51] = target: Cytochrome P450 2C9 (Homo sapiens, UniProt P11712); assay: Inhibition of CYP2C9; type: ADME
Cytochrome P450 2C9, sequence (P11712 whole entry): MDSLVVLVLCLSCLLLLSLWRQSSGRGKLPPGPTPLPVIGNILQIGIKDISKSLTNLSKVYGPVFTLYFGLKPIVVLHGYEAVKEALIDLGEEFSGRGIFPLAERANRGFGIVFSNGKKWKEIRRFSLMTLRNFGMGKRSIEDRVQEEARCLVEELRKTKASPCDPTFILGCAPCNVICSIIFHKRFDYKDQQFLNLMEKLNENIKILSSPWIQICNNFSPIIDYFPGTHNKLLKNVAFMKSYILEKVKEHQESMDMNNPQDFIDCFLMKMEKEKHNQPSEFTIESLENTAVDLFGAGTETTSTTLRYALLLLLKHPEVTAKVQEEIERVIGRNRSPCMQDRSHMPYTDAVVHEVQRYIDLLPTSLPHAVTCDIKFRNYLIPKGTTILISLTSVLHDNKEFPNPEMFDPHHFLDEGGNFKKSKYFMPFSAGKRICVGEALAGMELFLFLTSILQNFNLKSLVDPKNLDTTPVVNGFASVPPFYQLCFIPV

[52] = Ratio of drug uptake in brain to plasma of Beagle dog at 5 mg/kg, po after 6 to 24 hrs by LC-MS/MS analysis; type: ADME, organism-based, Canis lupus familiaris; set-up: dose 5 mg/kg, route oral; conditions: read-out: BPR
[53] = Clearance in Beagle dog at 1 mg/kg, iv after 6 to 24 hrs by LC-MS/MS analysis; type: ADME, organism-based, Canis lupus familiaris; set-up: dose 1 mg/kg, route intravenous; conditions: in vivo
[54] = tested on: Brain; assay: Clearance in Sprague-Dawley rat brain at 10 mg/kg, po administered as single dose after 24 hrs by LC-MS/MS analysis; type: ADME, organism-based; set-up: dose 10 mg/kg, route oral; conditions: in vivo
[55] = Plasma protein binding in Beagle dog after 1 hr by LC/MS/MS analysis; type: ADME, cell-free, Canis lupus familiaris; conditions: read-out: PPB (converted)
[56] = Volume of distribution in cynomolgus monkey at 1 mg/kg, iv after 6 to 24 hrs by LC-MS/MS analysis; type: ADME, organism-based, Macaca fascicularis; set-up: dose 1 mg/kg, route intravenous; conditions: in vivo
[57] = Bioavailability in fasted Sprague-Dawley rat at 1 mg/kg, iv after 6 to 24 hrs by LC-MS/MS analysis; type: ADME, organism-based; conditions: in vivo

SMILES: Cn1nc(-c2ccc(OCCCN3CCC[C@H]3CO)cc2)ccc1=O
half-life [1]: 1 h | bioavailability [2]: 43% | Kp [3]: 1.4 | clearance [4]: 90 mL/min/kg | Ki [5]: 48 nM

SMILES: C[C@@H]1CCCN1CCCOc1ccc(-c2ccc(=O)[nH]n2)cc1.Cl [IRDABISANT HYDROCHLORIDE]
CL [13]: > 98% | bioavailability [14]: 83% | Cmax [15]: 270 ng/mL | CL [16]: > 98% | IC50 [17]: > 30000 nM | remaining at 40 min [18]: > 98% | AUC [19]: 1920 ng·h/mL | AUC [20]: 984 ng·h/mL | Vd [21]: 9.4 L/kg | half-life [1]: 2.6 h | half-life [22]: > 0.667 h | remaining at 40 min [23]: > 98% | remaining at 40 min [24]: > 98% | IC50 [25]: > 30000 nM | half-life [26]: 2.9 h | clearance [27]: 7.7 mL/min/kg | Cmax [28]: 230 ng/mL | Vd [29]: 3.5 L/kg | bioavailability [30]: 83% | half-life [31]: 5.4 h | Kp [3]: 2.6 | CL [32]: > 98% | half-life [33]: > 0.667 h | half-life [34]: 5 h | CL [35]: > 98% | bioavailability [36]: 22% | clearance [4]: 42 mL/min/kg | half-life [37]: 2.7 h | half-life [38]: > 0.667 h | AUC [39]: 1190 ng·h/mL | fraction unbound at 1 h [40]: 0.56 | CL [41]: > 98% | Cmax [42]: 760 ng/mL | IC50 [43]: > 30000 nM | CL [44]: > 98% | half-life [45]: > 0.667 h | IC50 [46]: > 30000 nM | fraction unbound [47]: 0.4 | fraction unbound at 1 h [48]: 0.61 | remaining at 40 min [49]: > 98% | half-life [50]: 2.9 h | IC50 [51]: > 30000 nM | Kp [52]: 2.4 | clearance [53]: 13.2 mL/min/kg | CL [54]: > 98% | fraction unbound at 1 h [55]: 0.68 | Vd [56]: 3.8 L/kg

SMILES: C[C@@H]1CCCN1CCCOc1ccc(-c2ccc(=O)n(-c3ccccc3)n2)cc1
half-life [1]: 2.1 h | bioavailability [2]: 10% | Kp [3]: 6.2 | clearance [4]: 11.7 mL/min/kg | Ki [9]: 2.5 nM | Ki [5]: 7.9 nM

Second part, led by results:

half-life [1]: 1 h | Kb [6]: 0.4 nM | bioavailability [7]: 24% | Kp [3]: 1.8 | clearance [4]: 9.6 mL/min/kg | Ki [9]: 2.8 nM | EC50 [10]: 1.1 nM | EC50 [11]: 2.1 nM | Ki [5]: 8.5 nM
SMILES: C[C@@H]1CCCN1CCCOc1ccc(-c2cn[nH]c(=O)c2)cc1
IC50 [8]: 9500 nM | ED50 [12]: 0.03 mg/kg

bioavailability [57]: > 18% | half-life [1]: 1.5 h | Kp [3]: 32 | clearance [4]: 39 mL/min/kg
SMILES: C[C@@H]1CCCN1CCc1cc2cc(-c3ccc(C#N)cc3)ccc2o1
